How the values were obtained:
pyruvate dehydrogenase = details: highly purified pyruvate dehydrogenase, cited from earlier work
HCT116 tumors = assay: KULA2 in mice harboring HCT116 tumors (MPC null); type: in vivo; details: comparator results named beside KULA2 in HCT116; dose and source not given
Procedure: CT26 is the MPC+ group. MPC levels were verified via western blotting or otherwise known (see, e.g., Schell, et al., Molecular Cell, 56:400-413 (2014)).
In both models HCT116 and CT26 the mice (between 8-10 per arm) were dosed with KULA2 via i.p. injection and vehicle, HCT116 tumors at a dose of 20 mg/kg, and CT26 tumors at a dose of 18 mg/kg. Dosing schedule in both cases was 5 days on, 2 days off for the duration of the study.
Experiments were designed to determine if MPC expression correlates with the efficacy of PDK inhibitor. A PDK inhibitor, KULA2, was administered to mice harboring HCT116 tumors (at a dose of 20 mg/kg) or CT26 tumors (at a dose of 18 mg/kg).

A549 cells = assay: Extracellular lactate after PDK inhibitor, with or without UK5099 pre-treatment; type: cell-based; details: 16 hrs UK5099 pre-treatment, then DCA 50 mM or KULA2 500 μM for 6 hrs
Procedure: A549 cells were pre-treated for 16 hrs with the MPC inhibitor UK5099 and then subsequently treated with the test articles for 6 hrs; extracellular lactate was then measured. Dichloroacetate (DCA) and KULA2, a dichloroacetate (DCA) analogue targeted to the mitochondria with a lipophilic triphenylphosphonium (TPP) cation moiety, were used ((Pathak R K et al., ACS Chem. Biol., 9 (5) 1178-1187 (2014), (Pathak R K et al., ACS Chem. Biol., 9 (5) 1178-1187 (2014), and WO/2015/002996). DCA is dosed at 50 mM and KULA2 is dosed at 500 μM.

Compound | tumor inhibition (comparators) (HCT116 tumors) [%] | also measured
Cc1ncc(C[n+]2csc(CCO)c2C)c(=O)[nH]1 [oxythiamine, Oxythiamine] | – | Ki (pyruvate dehydrogenase; oxythiamine diphosphate ester, read-out: KI against the normal cofactor TPP): 70 nM
CNC(=O)c1cc(Oc2ccc(NC(=O)Nc3ccc(Cl)c(C(F)(F)F)c3)cc2)ccn1 [sorafenib] | 17 | –
N#C/C(=C\c1cn(-c2ccccc2)c2ccccc12)C(=O)O [UK5099] | – | effect of MPC inhibition on lactate reduction by PDK inhibitors (A549 cells): lowers the lactate reduction normally seen with PDK inhibitors
N.N.[Cl][Pt][Cl] [cisplatin] | 22 | –
Cc1ncc(C[n+]2csc(CCO[P@](=O)(O)OP(=O)(O)O)c2C)c(N)n1 [TPP, thiamine pyrophosphate] | – | Km (pyruvate dehydrogenase; read-out: Km of cofactor): 0.11 µM
VEGF-TRAP: comparator named for tumor inhibition | 22 | –

Reference: patent publication US20170349949A1, “METHODS OF SELECTING SUBJECTS FOR TREATMENT WITH METABOLIC MODULATORS” (Partikula LLC, priority 2016, published 2017)
